Assay results taken from patent US20220047559A1, “DRUG COMPOSITION FOR TREATING BREAST CANCER AND METHOD FOR MANUFACTURING THE SAME” (National Chiao Tung University, priority 2020, published 2022).

What was measured:
[1] = Release of drugs from dialysis bag in pH 7.4 PBS buffer solution; assay type: physicochemical; conditions: 37° C.
Method: FIG. 3A and FIG. 3B show the release curves of ganetespib. FIG. 3C and FIG. 3D show the release curves of curcumin For free ganetespib, the dialysis bag stops release after 8 hours, and about 73% ganetespib is released. For ganetespib in the drug composition, the dialysis bag continues release until as long as 12 hours has elapsed, and about 80% ganetespib is released. As indicated by the arrows in FIG. 3B, CHC/GAN where ganetespib is encapsulated by CHC releases ganetespib more slowly and has higher content of ganetespib. It is because CHC protects ganetespib from being damaged by the environment and makes ganetespib release slowly. For free curcumin, although the dialysis bag have continued releasing curcumin for as long as 168 hours, the accumulated released curcumin is only about 8%. The slow release rate of free curcumin is owing to low aqueous solubility of curcumin Low aqueous solubility of curcumin also leads to low bioavailability of curcumin. The release rate of the curcumin in CHC/CCM is about the same as the free curcumin. The accumulated released curcumin of the curcumin in CHC/CCM is about 9%, slightly higher than that of the free curcumin. However, it can be seen in FIG. 3D: the difference therebetween increases with time.

SK-BR-3 cells = assay: Cytotoxicity test (MTS, cell survival rate, IC50, combination index); assay type: cell-based; conditions: Homo sapiens, 48 hours
Method: Culture SK-BR-3 cells in a 24-well culture plate, and each well has 10^4 cells. After cells have attached to the culture plate for 20-24 hours, remove the culture liquid, and rinse the cells with PBS. Use Dulbecco's Modified Eagle Medium (DMEM) to dilute the drug compositions GAN, CCM, CHC/GAN, CHC/CCM, and CHC/GAN-CCM. Add the diluted drug compositions to the cells, and co-culture each drug composition and the cells for 48 hours. Remove DMEM, and flush the product of co-culture with PBS. Add MTS and DMEM (1:5 (v/v)) into each well of the cell culture plate, and culture them for 2-4 hours. Use a microplate reader to measure the absorptivity of the light having a wavelength of 490 nm, whereby to estimate the cell survival rates. The cell survival rate can be used to determine the half inhibitory concentration (IC50) and the combination index (CI) of two drugs. CHC/GAN and CHC/CCM can more effectively kill cells than the drugs in form of free molecules. […] Therefore, the drug composition carried by CHC nanoparticles can more effectively treat breast cancer in smaller dosage. Especially, while ganetespib is carried by CHC nanocarriers, the treating effect may be increased 60-70 times. […] The results also indicate that the effective concentration of the drug composition of the present invention may be lower than that of the conventional drug composition. […]

| time after which release of ganetespib stops [1] | ganetespib released ([1]; at the time release stops) | accumulated released curcumin ([1]; 168 hours) | Structure (SMILES) | IC50 (SK-BR-3 cells; ganetespib) | IC50 (SK-BR-3 cells; curcumin) |
| --- | --- | --- | --- | --- | --- |
| 8 h | about 73% |  | CC(C)c1cc(-c2n[nH]c(=O)n2-c2ccc3c(ccn3C)c2)c(O)cc1O [GAN, ganetespib] | 0.00188 µg/mL |  |
|  |  | about 8% | COc1cc(/C=C/C(=O)CC(=O)/C=C/c2ccc(O)c(OC)c2)ccc1O [CCM, curcumin] |  | 12 µg/mL |
